The values below come from patent US9434688B2, “Indole derivatives as selective androgen receptor modulators (SARMS)” (Janssen Pharmaceutica, NV, priority 2004, dated 2016).

Several values for one entry are separate records, joined by “and”; a condition that tells them apart may be missing. Equal values may be shown once.

In assay [1] the target is T1, androgen receptor (Rattus norvegicus, UniProt P15207).
T1 sequence (P15207 1-902): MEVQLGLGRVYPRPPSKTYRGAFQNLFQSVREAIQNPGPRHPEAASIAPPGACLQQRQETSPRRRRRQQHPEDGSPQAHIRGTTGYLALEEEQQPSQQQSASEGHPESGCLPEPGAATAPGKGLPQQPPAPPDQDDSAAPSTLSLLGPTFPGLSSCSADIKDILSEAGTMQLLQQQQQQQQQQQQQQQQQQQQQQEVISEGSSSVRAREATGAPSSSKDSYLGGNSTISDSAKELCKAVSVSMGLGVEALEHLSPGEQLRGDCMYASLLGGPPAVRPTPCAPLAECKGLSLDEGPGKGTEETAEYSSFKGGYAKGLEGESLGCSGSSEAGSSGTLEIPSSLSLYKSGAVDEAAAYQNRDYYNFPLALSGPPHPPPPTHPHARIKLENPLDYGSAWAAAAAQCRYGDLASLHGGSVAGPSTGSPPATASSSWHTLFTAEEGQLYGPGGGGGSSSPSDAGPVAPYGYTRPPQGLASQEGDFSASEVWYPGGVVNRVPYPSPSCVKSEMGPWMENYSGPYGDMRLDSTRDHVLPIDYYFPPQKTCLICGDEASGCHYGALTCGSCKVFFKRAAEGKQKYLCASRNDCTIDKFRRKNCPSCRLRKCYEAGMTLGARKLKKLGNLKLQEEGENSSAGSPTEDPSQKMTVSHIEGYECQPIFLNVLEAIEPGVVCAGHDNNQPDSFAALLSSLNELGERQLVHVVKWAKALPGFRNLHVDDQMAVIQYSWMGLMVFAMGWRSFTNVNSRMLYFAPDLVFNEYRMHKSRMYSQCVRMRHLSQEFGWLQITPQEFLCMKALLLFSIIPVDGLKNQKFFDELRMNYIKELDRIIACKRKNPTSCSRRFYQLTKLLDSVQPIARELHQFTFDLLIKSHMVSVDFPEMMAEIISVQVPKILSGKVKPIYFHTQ
Kind of assay: L929 Androgen Receptor Functional Assay, Adenovirus Transduction. It counts as cell-based. Particulars: concentration of 3000 nM, 3 µM. More on the design: expressed in transfected cells; host or cells: L929 cells transduced with adenovirus AdEasy+rAR. On the procedure:
L929 cells were plated in 96-well plates at 20,000 cells per well, in DMEM/F12 (GIBCO) containing 10% (v/v) charcoal-treated fetal bovine serum (Hyclone) and lacking phenol red. The plates were then incubated overnight at 37° C. in 5% (v/v) humidified CO2.
Test compound dilutions were prepared in 100% (v/v) DMSO, if necessary. Each dilution was made to 1250× the final desired assay concentration.
First, 2 mL of DMEM/F12 lacking phenol red was pipetted into the wells of a 2-mL 96-well assay block. Next, 4 μL of the 1250× test compound dilutions were pipetted into each well of the assay block. The mixtures within the well were then carefully mixed by pipette.
In a 15 mL or 50 mL sterile centrifuge tube, a 2.5 nM (2.5×) dilution of R1881 (methyl-trienolone) in DMEM/F12 lacking phenol red was prepared.
In a second 15 mL or 50 mL centrifuge tube a solution containing an equal volume of DMEM to the first and an equal volume of 100% (v/v) DMSO to the volume of R1881 used in the first tube was prepared.
In a 15 mL or 50 mL sterile centrifuge tube, a dilution in DMEM/F12 of the adenovirus AdEasy+rAR at an moi of 1:500 per well was prepared.
The medium was removed from the 96-well plates by inversion and dried, inverted, very briefly. As soon as possible after medium removal, 40 μL of the diluted unlabeled test compound was added to each well, in duplicate. To each well designated for antagonist testing was added 40 μL of the 2.5 nM R1881 dilution to the wells for antagonist testing. To each well designated for agonist testing was added 40 μL of the DMSO dilution. Then 20 μL of the diluted adenovirus were added to all wells. The plates were incubated for 48 hours at 37° C. in 5% (v/v) humidified CO2.
To each well was added 100 μL of Steady-Glo luciferase assay substrate (Promega) and the plates were placed on a rotary shaker for 1 min. The plates were then incubated at room temperature in the dark for one hour. The contents of each well were then transferred to a white microtiter plate (Packard) and read on a Luminoskan Ascent (Thermo Lab Systems).
L929 AR percent activity was determined by testing dilutions of the test compound using a concentration of 3000 nM unless otherwise noted. L929 percent inhibition was determined by testing dilutions of the test compound using a concentration of 3000 nM. […] Luciferase activity per well were measured and EC50s and IC50s determined by linear regression.

Assay [2] deals with T1, androgen receptor. Description: Androgen Receptor Binding Using Rat Ventral Prostate Cytosol. More on the design: from tissue; host or cells: ventral prostate cytosol of castrated male Sprague Dawley or Wistar rats. As to conditions: 3 µM.

The % Inhibition is the relative decrease from the control value, in per cent. Take `CCSCC(O)c1cc2cc([N+](=O)[O-])c(C(F)(F)F)cc2[nH]1` (racemic) [compound 158]: on androgen receptor [1] (L929 agonist testing), the “% Activity” value is 3% and 2%. The “% Inhibition” value was 21% and 29% on androgen receptor [1] (L929 antagonist testing with R1881); 52% at androgen receptor [2].
